As usually defined, the EC50 is the concentration that produces a half-maximal response. Higher therefore signals lower potency in that assay.

For this test, the target named is T1, Human STING (Homo sapiens, UniProt Q86WV6, G230A/H232R/R293Q/R71H).
T1 construct: host or cells: THP1-Dual KO-IFNAR2 cells
The test can be described thus: STING reporter assay (luciferase) in THP1-Dual KO-IFNAR2 cells stimulated with 2′3′cGAMP. The test is classed as cell-based. The following applies: 15 μM 2′3′cGAMP, 24 h. On the procedure:
STING pathway activation by the compounds described herein is measured using THP1 Dual™ cells (KO-IFNAR2).
THP1-Dual™ KO-IFNAR2 Cells (obtained from invivogen) are maintained in RPMI, 10% FCS, 5 ml P/S, 2 mM L-glut, 10 mM Hepes, and 1 mM sodium pyruvate. Compounds are spotted in empty 384 well tissue culture plates (Greiner 781182) by Echo for a final concentration of 0.0017-100 μM. Cells are plated into the TC plates at 40 μL per well, 2×10E6 cells/mL. For activation with STING ligand, 2′3′cGAMP (MW 718.38, obtained from Invivogen), is prepared in Optimem media.
The following solutions are prepared for each 1×384 plate: • Solution A: 2 mL Optimem with one of the following stimuli: • 60 uL of 10 mM 2′3′cGAMP ->150 μM stock • Solution B: 2 mL Optimem with 60 μL Lipofectamine 2000->Incubate 5 min at RT
2 mL of solution A and 2 ml Solution B is mixed and incubated for 20 min at room temperature (RT). 20 uL of transfection solution (A+B) is added on top of the plated cells, with a final 2′3′cGAMP concentration of 15 μM. The plates are then centrifuged immediately at 340 g for 1 minute, after which they are incubated at 37° C., 5% CO2, >98% humidity for 24 h. Luciferase reporter activity is then measured. EC50 values were calculated by using standard methods known in the art.
Luciferase reporter assay: 10 μL of supernatant from the assay is transferred to white 384-plate with flat bottom and squared wells. one pouch of QUANTI-Luc™ Plus is dissolved in 25 mL of water. 100 μL of QLC Stabilizer per 25 mL of QUANTI-Luc™ Plus solution was added. 50 μL of QUANTI-Luc™ Plus/QLC solution per well is then added. Luminescence is measured on a Platereader (e.g., Spectramax I3X (Molecular Devices GF3637001)).
Luciferase reporter activity is then measured. EC50 values are calculated by using standard methods known in the art.
For orientation: In a reporter assay the amount or activity of a reporter protein is the signal.

Bounds are passed on as bounds.

T1 sequence (Q86WV6 whole entry R71H/G230A/H232R/R293Q): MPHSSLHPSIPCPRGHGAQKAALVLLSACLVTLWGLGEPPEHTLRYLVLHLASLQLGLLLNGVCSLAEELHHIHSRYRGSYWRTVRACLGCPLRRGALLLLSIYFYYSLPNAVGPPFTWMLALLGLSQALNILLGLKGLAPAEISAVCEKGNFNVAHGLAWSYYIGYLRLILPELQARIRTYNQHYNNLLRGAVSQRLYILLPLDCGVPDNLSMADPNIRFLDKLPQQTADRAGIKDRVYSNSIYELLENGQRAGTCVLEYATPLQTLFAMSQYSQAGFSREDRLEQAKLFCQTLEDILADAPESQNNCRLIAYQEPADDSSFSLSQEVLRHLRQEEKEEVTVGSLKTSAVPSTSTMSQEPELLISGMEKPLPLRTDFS

As to `Fc1cnc2[nH]cc(Nc3ncc(-c4ccccc4)o3)c2c1` [Compound 101, N-[5-fluoro-1H-pyrrolo[2,3-b]pyridin-3-yl]-5-phenyl-1,3-oxazol-2-amine], for the setting “class symbols”, the 50% effective concentration (EC50) lay in the range of 0.2 to 1 µM.
`c1ccc(-c2ccnc(Nc3c[nH]c4cccnc34)c2)cc1` [Compound 102, N-(4-phenylpyridin-2-yl)-1H-pyrrolo[3,2-b]pyridin-3-amine] displayed an EC50 (class symbols) of 5 to 30 µM.
Same read-out and setting: next, `c1ccc2sc(Nc3c[nH]c4ccccc34)nc2c1` [Compound 103]: 1 to 5 µM; `c1ccc(-c2ccnc(Nc3c[nH]c4ccccc34)n2)cc1` [Compound 158]: 1 to 5 µM.
On the same count and under the same terms, to `c1ccc2nc(Nc3c[nH]c4ccccc34)ncc2c1` [Compound 159] belongs 5 to 30 µM; to `O=c1cc(-c2ccccc2)[nH]c(Nc2c[nH]c3cccnc23)n1` [Compound 160], 1 to 5 µM.
On the same count and under the same terms, to `Fc1cc2[nH]cc(Nc3ccc4cc(C(F)(F)F)ccc4n3)c2cc1F` [Compound 161, N-(5,6-difluoro-1H-indol-3-yl)-6-(trifluoromethyl)quinolin-2-amine] belongs 1 to 5 µM.
With `Fc1cc2[nH]cc(Nc3ccc4ccc(C(F)(F)F)cc4n3)c2cc1F` [Compound 162], the concentration for a half-maximal effect (EC50) (class symbols) lay within 0.2 to 1 µM.
The same measure, in the same setting: to `O=c1cc(-c2ccccc2)[nH]c(Nc2c[nH]c3cc(F)c(F)cc23)n1` [Compound 163, 2-[(5,6-difluoro-1H-indol-3-yl)amino]-6-phenyl-1H-pyrimidin-4-one] belongs 5 to 30 µM.
With `O=c1cc[nH]c(Nc2c[nH]c3cc(F)c(F)cc23)n1` [Compound 164], the EC50 (numeric bounds) is above 30 µM.
With `c1ccc(-c2cnc(Nc3c[nH]c4ccccc34)s2)cc1` [Compound 165], the half-maximal effective concentration (EC50) (class symbols) was 0.2 to 1 µM.
Consider `c1ccc2cc(Nc3c[nH]c4ccccc34)ncc2c1` [Compound 166], for which, under “class symbols”, the EC50 lay in the range of 1 to 5 µM.
The same measure, in the same setting: to `c1ccc2nc(Nc3c[nH]c4ccccc34)ccc2c1` [Compound 167] belongs 1 to 5 µM.
`O=c1nc(Nc2c[nH]c3cccnc23)ccn1-c1ccccc1` [Compound 168]: the 50% effective concentration (EC50) (numeric bounds) was above 100 µM.
For the setting “class symbols”, `c1ccc(-c2ccc(Nc3c[nH]c4cccnc34)nc2)cc1` [Compound 169] displayed an EC50 of 5 to 30 µM.

The record behind these values is patent publication US20220227760A1, “COMPOUNDS AND COMPOSITIONS FOR TREATING CONDITIONS ASSOCIATED WITH STING ACTIVITY” (IFM Due, Inc., priority 2019, published 2022).
